Series [1] concerns southern corn rootworm (Diabrotica undecimpunctata howardi). Description: Biological Test 3: mortality of hatched larvae and eggs. Format: in vivo. Particulars: 192 h, read-out: mortality of the hatched larvae and eggs. The source says:
Filter paper of 5.5 cm in diameter was laid in the bottom of a polyethylene cup (diameter: 5.5 cm). […] After 8 days, the mortality of the hatched larvae and eggs was examined.

For series [2], the system named is houseflies (Musca domestica). Description: Biological Test 4: mortality of female houseflies low sensitive to pyrethroids, treated filter paper. Particulars: 24 h. Type of series: in vivo. The procedure:
Filter paper of 5.5 cm in diameter was laid in the bottom of a polyethylene cup (diameter: 5.5 cm). After 0.7 ml of a 500 ppm aqueous emulsion obtained by diluting each emulsifiable concentrate prepared according to the formulation example 1 was dropped on the filter paper and approximately 30 mg of sucrose as bait was uniformly scattered. Ten female houseflies (Musca domestica), which were low sensitive to pyrethroids, were left in the cup with a cover. After one day, the mortality was examined.

Series [3] concerns common mosquitoes (Culex pipiens pallens). Nature of the series: Biological Test 11: mosquitoes in cup over treated aluminum plate without direct contact, mortality. Format: in vivo. Particulars: 24 h. As to the method: After 0.64 ml of a 0.05 (w/v) % acetone solution of the present compounds was dropped into an aluminum plate (bottom diameter: 7 cm), acetone was air-dried. Ten female common mosquitoes (Culex pipiens pallens) were left in a polyethylene cup (diameter: 9 cm; depth: 4.5 cm) and the cup was sealed with a 16-mesh nylon net to prevent direct contact of the mosquitoes with the compound. The cup was placed upside down on the aluminum plate at 25° C. for 120 minutes. The cup was then removed from the aluminum plate, and water and feed were given to the mosquitoes. After 24 hours, the mortality was examined (two replicate).

Series [4] shares this test system. Nature of the series: Biological Test 6: mortality of last-instar mosquito larvae in water. Type of series: in vivo. The conditions noted are these: 24 h, read-out: mortality of the common mosquitoes. As to the method: 0.7 ml of aqueous emulsion, obtained by diluting emulsifiable concentrate prepared for each of the present compounds according to the formulation example 1, was added to 100 ml of ion-exchanged water (concentration of active ingredient: 3.5 ppm). Twenty last-instar larvae of common mosquitoes (Culex pipiens pallens) were left in the water. After one day, the mortality of the common mosquitoes was examined.

For series [5], the system named is brown planthopper (Nilaparvata lugens). Nature of the series: Biological Test 2: mortality of larvae on dipped rice plant stalk. The conditions noted are these: 144 h, read-out: mortality of the larvae. Type of series: in vivo. As to the method: A stalk of a rice plant was dipped for one minute in a 500 ppm aqueous emulsion obtained by diluting each emulsifiable concentrate of the present compounds prepared according to the formulation example 1. The rice plant stalk was air-dried and placed in a polyethylene cup (diameter: 5.5 cm) where filter paper (diameter: 5.5 cm) impregnated with 1 ml of water was put. Approximately 30 larvae of brown planthopper (Nilaparvata lugens) were put in the polyethylene cup. After 6 days, the mortality of the larvae was examined.

Series [6] deals with common mosquitoes (Culex pipiens pallens). Nature of the series: Biological Test 7: knock-down of mosquitoes by sprayed oil solution. Particulars: 0.7 ml of 0.1% oil solution sprayed in 0.34 m^3 chamber; after 15 minutes. Format: in vivo. The procedure:
Ten female common mosquitoes (Culex pipiens pallens) were left in a glass chamber (70 cm×70 cm×70 cm: 0.34 m^3). 0.7 ml of 0.1% oil solution prepared for each of the present compounds according to the formulation example 7 was sprayed with a spray gun at 0.8 atmospheric pressure. After 15 minutes, the rate of knocked-down mosquitoes was examined.

The subject of series [7] is German cockroaches (Blattella germanica). Nature of the series: Biological Test 5: mortality of male German cockroaches low sensitive to pyrethroids, treated filter paper. Format: in vivo. Particulars: 144 h. As to the method:
Filter paper of 5.5 cm in diameter was laid in the bottom of a polyethylene cup (diameter: 5.5 cm). After 0.7 ml of a 500 ppm aqueous emulsion obtained by diluting each emulsifiable concentrate prepared according to the formulation example 1 was dropped on the filter paper and approximately 30 mg of sucrose as bait was uniformly scattered. Two male German cockroaches (Blattella germanica), which were low sensitive to pyrethroids, were left in the cup with a cover. After six days, the mortality was examined.

For series [8], the system named is webbing clothes moth (Tineola bisselliella). Nature of the series: Biological Test 14: treated filter paper in cardboard box, percent moribund, fabric damage and persistence. Format: in vivo. The conditions noted are these: 36 mg on filter paper. The procedure: A filter paper (3.2 cm×3.2 cm in size) treated with 36 mg of each of the present compounds and two wool muslin fabrics (25 cm×25 cm in size) were hung down at the upper part of a corrugated cardboard box (29 cm×29 cm×29 cm in size). After standing at 25° C. and a humidity of 60% for 1 week, two tea-strainer balls holding 7 to 10 middle instar larvae of webbing clothes moth (Tineola bisselliella) and one piece of wool muslin cloth (2 cm×2 cm in size) were hung down at the upper part of the box. The box was closed with a lid. After one week, the box was opened, and the percent moribund and the degree of damage of the wool muslin cloth by the moths were examined. The same tests was repeated 2 weeks, 3 weeks and 5 weeks after the treatment to examine the persistance of the present compound. The degree of damage was represented by "-" in no damage, "+" in slight damage, "++" in heavy damage and "+++" in severe damage.

Series [9] shares this test system. Description: Biological Test 13: volatile agent in cup, mortality and fabric damage. Type of series: in vivo. The conditions noted are these: volatile agent (100 μg on filter paper), 950 cm^3 cup, 25° C., 1 week; for mortality: 10080 min. As to the method: A wool muslin fabric (2 cm×2 cm in size) was placed on the bottom of a polyethylene cup (bottom diameter: 10 cm, opening part diameter: 12.5 cm, height: 9.5 cm, volume: 950 cm^3). Ten middle instar larvae of webbing clothes moth (Tineola bisselliella) were put in the cup and each of the volatile agents prepared according to the formulation example 14 was hung from the cap in the interior of the cup. After standing at 25° C. for 1 week, the cup was opened, and the mortality and the degree of damage of the wool muslin fabric by the moths were examined (two replicate).

Series [10] has as its system tobacco cutworm (Spodoptera litura). Nature of the series: Biological Test 1: mortality of larvae on impregnated artificial bait. Type of series: in vivo. Particulars: 144 h, read-out: mortality of the larvae. As to the method:
Emulsifiable concentrates were prepared for each of the present compounds according to the formulation example 1. Thirteen grams of artificial bait for tobacco cutworm (Spodoptera litura) were placed in a polyethylene cup (diameter: 11 cm) and impregnated with 2 ml of the 500 ppm emulsion prepared by diluting the emulsifiable concentrates with water. Ten 4-instar larvae of Spodoptera litura were put in the polyethylene cup. After 6 days, the mortality of the larvae was examined.

Series [11] deals with common mosquitoes (Culex pipiens pallens). Nature of the series: Biological Test 8: knock-down of mosquitoes by mosquito-coil. Format: in vivo. Particulars: 1.0 g of 0.3% mosquito-coil in 0.34 m^3 chamber; after 15 minutes. The procedure:
Mosquito-coil containing the present compound in an amount of 0.3% was prepared according to the formulation example 10 for the present compounds. Ten female common mosquitoes (Culex pipiens pallens) were left in a glass chamber (70 cm×70 cm×70 cm: 0.34 m^3) and 1.0 g of 0.3% mosquito-coil having both ends lit was placed in the glass chamber. After 15 minutes, the rate of knocked-down mosquitoes was examined.

Series [12] concerns webbing clothes moth (Tineola bisselliella). Description: Biological Test 12: topical application to larvae of webbing clothes moth, mortality and fabric damage. Type of series: in vivo. Particulars: for degree of damage of the wool muslin fabric: 3 μg/insect, after 7 days; for mortality at 0.003 mg: Tineola bisselliella, 168 h. The procedure: Each of the present compounds diluted with acetone to a predetermined concentration was applied to ten middle instar larvae of webbing clothes moth (Tineola bisselliella) at the central part of the back so as to give the active ingredient in a dose of 3 μg/insect. A wool muslin fabric (2 cm×2 cm in size) was given to the webbing clothes moths as the food. After 7 days, the mortality and the degree of damage of the wool muslin fabric by the moths were examined (two replicate).

For series [13], the system named is houseflies (Musca domestica). Description: Biological Test 17: topical application of compound (2) with piperonyl butoxide, mortality. Type of series: in vivo. The conditions noted are these: after 24 hours. The procedure: The combination rate of piperonyl butoxide to the present compound was 0, 2, 4, 8 and 16 times. The mixture was dissolved in acetone. The acetone solution (0.5 μL) was applied to 10 female houseflies (Musca domestica) at the back thoracic region. After 24 hours, the number of dead insects was observed (2 repetition) and mortality was calculated.

Series [14] is described as follows: Toxicity Test: acute oral LD50. The conditions noted are these: rat, in vivo, corn oil, fasted male 7-week old rats, after 7 days. The procedure: After subjecting the rats to a twenty-hour fasting, 0.1 ml of the diluted solution per 10 g weight was forcibly applied into the stomach of four male 7-week old rats. The rats were given food and water four hours after the application and thereafter regularly fed and watered, and kept in a cage. After 7 days, the mortality was examined for the rats and LD50 was calculated.

The structures appear in SMILES notation.

For `CCc1ccc(COC(=O)[C@@H]2[C@H](/C=C(\Cl)C(F)(F)F)C2(C)C)o1` (relative stereo) [(2), 5-ethyl-2-furfuryl (1RS,cis)-3-(Z-2-chloro-3,3,3-trifluoroprop-1-enyl)-2,2-dimethyl-cyclopropanecarboxylate], the mortality at 50 ppm in series [1] amounted to 100%. Moreover, the mortality at 500 ppm in series [2] is 100%; in series [5] it was at least 90%; in series [7], 100%. Further, the mortality at 500 µg/mL in series [3] and in series [10] was 100% each time. Besides, the mortality at 3.5 ppm in series [4] is at least 90%. In addition, the “rate of knocked-down mosquitoes” value is at least 90% in [6] and 100% in series [11]. The degree of damage entry in series [8] (After 1 week), in [8] (After 2 weeks), in series [8] (After 3 weeks) and in series [8] (After 5 weeks) was “-” throughout. Further, the “degree of damage of the wool muslin fabric” value in series [9] and in series [12] was “no damage” throughout. In series [9], this compound yielded a mortality of 100%. Moreover, the mortality at 0.003 mg in series [12] came to 100%. The “Mortality (%)” value in series [13] (compound (2) 0.2 μg/female, piperonyl butoxide 0) was determined as 30%; in series [13] (compound (2) 0.2 + piperonyl butoxide 0.4 μg/female), 85%; in series [13] (compound (2) 0.2 + piperonyl butoxide 0.8 μg/female), 100%; in series [13] (compound (2) 0.2 + piperonyl butoxide 1.6 μg/female), 100%; in [13] (compound (2) 0.2 + piperonyl butoxide 3.2 μg/female), 100%.
With `CCCc1ccc(COC(=O)[C@@H]2[C@H](/C=C(\Cl)C(F)(F)F)C2(C)C)o1` (relative stereo) [(3), 5-propyl-2-furfuryl (1RS,cis)-3-(Z-2-chloro-3,3,3-trifluoroprop-1-enyl)-2,2-dimethylcyclopropanecarboxylate], the mortality at 50 ppm in [1] came out at 100%. For the same compound, the mortality at 500 ppm in [2] is 100%; in series [5] it was at least 90%; in series [7] it was 100%. Besides, the mortality at 500 µg/mL in series [3] and in series [10] was 100% each time. The mortality at 3.5 ppm in [4] was at least 90%. The entries for the “rate of knocked-down mosquitoes” value in [6] and in series [11] were at least 90% and 100%, respectively. The degree of damage entry in series [8] (After 1 week), in series [8] (After 2 weeks), in [8] (After 3 weeks) and in series [8] (After 5 weeks) was “-” throughout. Also, the “degree of damage of the wool muslin fabric” value in [9] and in [12] was “no damage” each time. In series [9], the mortality worked out at 100%. The compound further yielded a mortality at 0.003 mg in series [12] of 100%.
`CC1(C)C(/C=C(\Cl)C(F)(F)F)C1C(=O)OCc1ccc(C(F)F)o1` (stereo not shown) [B, reference compound]: the degree of damage entry in series [8] (After 1 week), in series [8] (After 2 weeks), in [8] (After 3 weeks) and in series [8] (After 5 weeks) was “+++” each time.
On to `C=CCc1ccc(COC(=O)[C@@H]2[C@H](/C=C(\Cl)C(F)(F)F)C2(C)C)o1` (relative stereo) [(4), 5-allyl-2-furfuryl (1RS,cis)-3-(Z-2-chloro-3,3,3-trifluoroprop-1-enyl)-2,2-dimethylcyclopropanecarboxylate], for which the mortality at 50 ppm in series [1] was 100%. The mortality at 500 ppm in [2] was 100%; in [5], at least 90%; in series [7], 100%. For the same compound, the mortality at 500 µg/mL in series [3] and in [10] was 100% each time. Also, in [4], the mortality at 3.5 ppm is at least 90%. For the same compound, the “rate of knocked-down mosquitoes” value is on record as at least 90% in [6] and 100% in [11]. In addition, the degree of damage result in [8] (After 1 week), in [8] (After 2 weeks), in series [8] (After 3 weeks) and in series [8] (After 5 weeks) was “-” in each case. In addition, the “degree of damage of the wool muslin fabric” value in series [9] and in series [12] was “no damage” in each case. The compound also yielded a mortality in series [9] of 100%. The mortality at 0.003 mg in [12] was determined as 100%.
For `C#CCc1ccc(COC(=O)C2C(/C=C(\Cl)C(F)(F)F)C2(C)C)o1` (stereo not shown) [C, reference compound], the degree of damage entry in series [8] (After 1 week), in series [8] (After 2 weeks), in series [8] (After 3 weeks) and in series [8] (After 5 weeks) was “+++” in each case. This compound showed an LD50 at 168 h in series [14] of under 100 mg/kg.
For `CC1(C)C(/C=C(\Cl)C(F)(F)F)C1C(=O)OCc1coc(Cc2ccccc2)c1` (stereo not shown) [A, reference compound], the degree of damage result in [8] (After 1 week), in [8] (After 2 weeks), in series [8] (After 3 weeks) and in series [8] (After 5 weeks) was “+++” each time. For the same compound, in series [14], the median lethal dose (LD50) at 168 h was under 50 mg/kg.

By mortality is commonly meant the percentage killed. A word on the LD50: it is the dose at which mortality reaches 50%. Low values mean greater toxicity, high ones lower toxicity.

The values are drawn from patent US6048892A, “Ester compound pesticide containing thereof” (Sumitomo Chemical Company, Limited, priority 1999, dated 2000).
